Data set [1] in a line: Efflux ratio of apparent permeability from basolateral to apical over apical to basolateral side in human Caco2 cells. Type of data set: ADME, cell-based. The settings on record: Caco-2.
Data set [2] in a line: Oral bioavailability in rat at 10 mg/kg. Type of data set: ADME, organism-based. Conditions: in vivo.

Square brackets hold non-standard residues; d marks the D form. Peptide text beside a SMILES is read from it. dNMeW = CN[C@H](Cc1c[nH]c2ccccc12)C(=O)O; NMeF = CN[C@@H](Cc1ccccc1)C(=O)O; NMeK = CN[C@@H](CCCCN)C(=O)O

The values below come from ChEMBL document CHEMBL4219041, “Improving oral bioavailability of cyclic peptides by N-methylation” (Bioorg Med Chem, 2018).

What is called efflux ratio is a quotient of directional permeabilities that is used to spot active efflux. A word on the bioavailability: it is the share of a dose that reaches the circulation, judged against a reference dose that is usually intravenous. Read a low bioavailability as little systemic uptake.

With `C[C@@H]1NC(=O)[C@H](C)N(C)C(=O)[C@H](C)N(C)C(=O)[C@H](C)NC(=O)[C@H](C)N(C)C(=O)[C@@H](C)N(C)C1=O`, in data set [1], the efflux ratio was determined as 1.97.

As to `C[C@@H]1NC(=O)[C@H](C)NC(=O)[C@@H](C)N(C)C(=O)[C@H](C)NC(=O)[C@H](C)N(C)C(=O)[C@H](C)NC1=O`, in data set [1], the efflux ratio is 1.93.

Turning to `C[C@@H]1NC(=O)[C@H](C)NC(=O)[C@@H](C)N(C)C(=O)[C@H](C)N(C)C(=O)[C@H](C)NC(=O)[C@H](C)NC1=O`, the efflux ratio in data set [1] was found to be 2.05.

In the case of `C[C@@H]1NC(=O)[C@H](C)N(C)C(=O)[C@H](C)N(C)C(=O)[C@H](C)NC(=O)[C@@H](C)N(C)C(=O)[C@H](C)N(C)C1=O`, in data set [1], the efflux ratio worked out at 0.08.

In turn, `C[C@@H](O)[C@@H]1NC(=O)[C@H](CCCCN)N(C)C(=O)[C@@H](Cc2c[nH]c3ccccc23)N(C)C(=O)[C@H](Cc2ccccc2)NC(=O)[C@@H]2CCCN2C(=O)[C@H](Cc2ccccc2)N(C)C1=O` (cyclo(F[dNMeW][NMeK]T[NMeF]P)) registered a bioavailability in data set [2] of 10%.
